Results as given in PMC3620320, “Differential Lipid Dependence of the Function of Bacterial Sodium Channels” (PLoS ONE, 2013).

Key:
pore-only NavMs = target: T1, pore-only NavMs (Magnetococcus marinus, UniProt A0L5S6); assay: […]+ uptake into proteoliposomes; assay type: biochemical; conditions: 3:1 POPE:guest lipid, pH 7.5, 60 min; small but significant activation
T1 construct: gene Mmc1_0798; purified from decyl maltoside; tetramer; reconstituted in liposomes
T1 sequence (A0L5S6 130-237): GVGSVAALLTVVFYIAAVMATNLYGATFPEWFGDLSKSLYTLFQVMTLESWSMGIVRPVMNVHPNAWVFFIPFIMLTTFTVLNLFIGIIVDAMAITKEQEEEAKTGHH

NaChBac = target: T2, NaChBac (Halalkalibacterium halodurans, UniProt Q9KCR8); assay: […]+ uptake into proteoliposomes; assay type: biochemical; conditions: 3:1 POPE:guest lipid, pH 7.5, 120 min; activator, greatest activity of guest lipids tested, modest variation
T2 construct: gene BH1501; full-length, expressed in E. coli, hexa-His tag cleaved with thrombin; ~31 kDa monomer; tetramer; reconstituted in liposomes
T2 sequence (Q9KCR8 1-274): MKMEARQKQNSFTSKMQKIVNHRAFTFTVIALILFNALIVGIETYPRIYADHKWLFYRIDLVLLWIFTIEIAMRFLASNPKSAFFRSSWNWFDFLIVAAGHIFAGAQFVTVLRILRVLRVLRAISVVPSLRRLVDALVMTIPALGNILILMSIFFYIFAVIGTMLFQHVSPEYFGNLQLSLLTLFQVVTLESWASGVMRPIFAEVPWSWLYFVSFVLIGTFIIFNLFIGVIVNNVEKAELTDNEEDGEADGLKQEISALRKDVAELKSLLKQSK

NavMs = target: T3, NavMs (Magnetococcus marinus, UniProt A0L5S6); assay: […]+ uptake into proteoliposomes; assay type: biochemical; conditions: 3:1 POPE:guest lipid, pH 7.5, 60 min; activator, greatest activity of guest lipids tested
T3 construct: gene Mmc1_0798; expressed in E. coli, hexa-His tag cleaved with thrombin; tetramer; reconstituted in liposomes
T3 sequence (A0L5S6 1-239 limits assumed): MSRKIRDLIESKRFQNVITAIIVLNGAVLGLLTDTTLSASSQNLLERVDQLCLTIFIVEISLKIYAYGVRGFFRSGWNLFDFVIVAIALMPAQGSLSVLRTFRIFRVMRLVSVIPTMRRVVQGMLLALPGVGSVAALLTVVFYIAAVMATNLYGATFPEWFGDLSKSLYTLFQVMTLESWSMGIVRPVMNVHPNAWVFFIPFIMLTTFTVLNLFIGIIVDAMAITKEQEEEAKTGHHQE

[1] = target: NavSp pore-only construct (voltage sensor subdomain removed) (Silicibacter pomeroyi); assay: SEC; gel filtration of pore-only constructs in decyl maltoside (0.2% DM); elution at tetramer mass plus DM micelle (~30 kDa)
[2] = target: NavSp, voltage-gated sodium channel from Silicibacter pomeroyi (Silicibacter pomeroyi) (UniProt F7IVA8); assay: SEC; Superdex 200 10/300 GL; 10 mM Tris-HCl pH 7.5, 100 mM NaCl, 0.02% NaN3, 0.25% Cymal-5; elution at tetramer mass plus Cymal-5 micelle (~23 kDa)
NavSp = target: T4, NavSp (Ruegeria pomeroyi, UniProt F7IVA8); assay: […]+ uptake into proteoliposomes; assay type: biochemical; conditions: 3:1 POPE:PI liposomes with 1% PI(4,5)P2, pH 7.5; inhibitor
T4 construct: gene SPO0030; full-length, expressed in E. coli, N-terminal hexa-His tag cleaved with thrombin; 258 amino acids; ~29 kDa monomer; tetramer; reconstituted in liposomes
T4 sequence (F7IVA8 1-258): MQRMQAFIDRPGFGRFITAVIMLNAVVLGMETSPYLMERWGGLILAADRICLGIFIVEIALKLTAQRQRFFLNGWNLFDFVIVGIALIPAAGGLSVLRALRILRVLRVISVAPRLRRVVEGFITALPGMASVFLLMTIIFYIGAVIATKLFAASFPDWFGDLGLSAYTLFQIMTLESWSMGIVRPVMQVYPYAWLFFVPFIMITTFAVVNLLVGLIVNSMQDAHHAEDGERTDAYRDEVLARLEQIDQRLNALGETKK

[3] = target: the molecule itself; assay: SEC; Superdex 200 10/300 GL; 10 mM Tris-HCl pH 7.5, 100 mM NaCl, 0.02% NaN3, 0.25% Cymal-5; elution at tetramer mass plus Cymal-5 micelle (~23 kDa)
[4] = target: the molecule itself; assay: SEC; gel filtration of pore-only constructs in decyl maltoside (0.2% DM); elution at tetramer mass plus DM micelle (~30 kDa)

CCCCCCCC/C=C\CCCCCCCC(=O)OC[C@H](COP(=O)(O)OCC(O)COP(=O)(O)OC[C@@H](COC(=O)CCCCCCC/C=C\CCCCCCCC)OC(=O)CCCCCCC/C=C\CCCCCCCC)OC(=O)CCCCCCC/C=C\CCCCCCCC (some centres unmarked) [CL, 18∶1 cardiolipin]
22Na+ uptake into proteoliposomes (pore-only NavMs): small but significant increase in activity when CL was present in the liposomes

CCCCCCCC/C=C\CCCCCCCC(=O)O[C@H](COC(=O)CCCCCCCCCCCCCCC)COP(=O)(O)OCC(O)CO (some centres unmarked) [PG, 1-palmitoyl 2-oleoyl phospatidyl glycerol]
22Na+ uptake into proteoliposomes (NaChBac): NavMs and NaChBac also showed maximal activity with a negatively-charged lipid
22Na+ uptake into proteoliposomes (NavMs): NavMs and NaChBac also showed maximal activity with a negatively-charged lipid

NavSp pore-only construct (voltage sensor subdomain removed) (domain or fragment)
stoichiometry N [1]: 4

NavSp, voltage-gated sodium channel from Silicibacter pomeroyi (from UniProt F7IVA8 1-258) (natural protein)
stoichiometry N [2]: 4

phosphatidylinositol 4,5-bisphosphate [PI(4,5)P2]
% inhibition at 1% PI(4,5)P2 (NavSp): ~ 50%

B1: NaChBac, voltage-gated sodium channel from Bacillus halodurans (natural protein, UniProt Q9KCR8 1-274, looked up)
chain: T2 sequence (Q9KCR8 1-274)
notes: NaChBac, voltage-gated sodium channel of Bacillus halodurans, Uniprot ID Q9KCR8, full length; pET15b vector was bought; source: E. coli, purified (DDM solubilisation, Ni-NTA in Cymal-5, thrombin, gel filtration)
stoichiometry N [3]: 4

B2: NavMs pore-only construct (voltage sensor subdomain removed) (domain or fragment, Magnetococcus spirillium (strain MC-1))
chain: T1 sequence (A0L5S6 130-237)
notes: NavMs of Magnetococcus spirillium (strain MC-1), Uniprot ID printed as AOL5S6 (A0L5S6), pore-only construct without the voltage sensor subdomain; PDB 4F4L is the cited crystal structure of the NavMs pore; also called pore-only NavMs; source: E. coli, purified in decyl maltoside (DM)
stoichiometry N [4]: 4
